Assay results taken from US20120065196A1, “AMIDE COMPOUNDS” (priority 2006, published 2012).

molecular target: T1, human DGAT1 (Homo sapiens, UniProt O75907); experiment: Determination of DGAT inhibitory activity (triglyceride synthesis with DGAT1 high expression Sf9 microsome); type: biochemical; conditions: 25 μM dioleoylglycerol, 25 μM [14C]-Oleoyl-CoA, 32° C., 20 min, read-out: hDGAT1 IC50
T1 construct: (N); made in house; host or cells: Sf9 insect cells infected with recombinant baculovirus BAC-DGAT1; microsome fraction
T1 sequence (O75907 1-488): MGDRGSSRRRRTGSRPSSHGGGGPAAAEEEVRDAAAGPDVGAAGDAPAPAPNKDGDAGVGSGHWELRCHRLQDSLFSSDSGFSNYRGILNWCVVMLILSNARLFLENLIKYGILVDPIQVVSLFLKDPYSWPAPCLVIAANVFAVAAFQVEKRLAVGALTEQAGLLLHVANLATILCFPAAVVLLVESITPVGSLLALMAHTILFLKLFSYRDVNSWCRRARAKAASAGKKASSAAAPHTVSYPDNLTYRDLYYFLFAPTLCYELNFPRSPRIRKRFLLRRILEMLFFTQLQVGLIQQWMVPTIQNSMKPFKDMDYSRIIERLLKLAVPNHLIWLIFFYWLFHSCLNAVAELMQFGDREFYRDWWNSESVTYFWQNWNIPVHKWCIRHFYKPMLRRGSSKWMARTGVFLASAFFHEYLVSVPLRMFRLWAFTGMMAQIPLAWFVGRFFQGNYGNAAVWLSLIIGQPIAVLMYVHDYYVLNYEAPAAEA
Method: Human DGAT1 gene was cloned by PCR using human adipocyte cDNA (Clontech, QUICK-Clone cDNA, human fat cell, cat #637220) as a template and, based on the DGAT1 gene information reported by Case, S. et al. (Proc. Natl. Acad. Sci. U.S.A. 95 (22), 13018-13023 (1998)), a nucleotide sequence (245-1711 of Genbank Accession No. NM_012079) encoding DGAT1 was amplified with the following PCR primer. The primer nucleotide sequence is shown below.
The PCR reaction was conducted using a KOD-plus kit (TOYOBO). The obtained PCR product was electrophoresed on agarose gel (1%), the DNA fragment amplified by PCR was recovered from the gel, and then digested with restriction enzymes EcoRI and SpeI. The DNA treated with the restriction enzymes was electrophoresed on agarose gel (1%), and the obtained DNA fragment was recovered and ligated with plasmid pFASTBAC1 (Invitrogen) digested with restriction enzymes EcoRI and SpeI to give expression plasmid pFB-DGAT1. The nucleotide sequence of the inserted fragment was confirmed and found to be identical with the nucleotide sequence of DGAT1 (245-1711 of Genbank Accession No. NM_012079). Furthermore, using BAC-TO-BAC Baculovirus Expression System (Invitrogen), recombinant baculovirus BAC-DGAT1 was prepared.
SF9 cells were sown at 1×10^6 cells/ml on Sf-900II SFM medium (1 L, Invitrogen) containing 10% fetal calf serum (Trace), 50 mg/L gentamicin (Invitrogen) and 0.1% Pluronic F-68 (Invitrogen), and shaking culture was performed using a 2 L volume Erlenmeyer flask at 27° C., 100 rpm. After culturing for 24 hrs, recombinant baculovirus BAC-DGAT1 (6.7 mL) was added, and the mixture was further cultured for 3 days. The culture medium was centrifuged at 2,000 rpm for 5 min to give virus-infected cells. The infected cells were washed with a phosphate buffered saline (Invitrogen), centrifuged under the same conditions, and the cells were preserved at −80° C. The cryopreserved cells were thawed in ice, suspended in buffer A (50 mM Tris buffer (30 mL, pH 7.4) containing 20% glycerol, 0.15 M NaCl) supplemented with Complete Protease Inhibitor (Boehringer), and ruptured 3 times with a Polytron homogenizer (Kinematica) at 20,000 rpm for 30 sec. The Sf9 microsome fractions were obtained by a conventional method and cryopreserved at −80° C. as a DGAT1 high expression Sf9 microsome.
As a DGAT1 reaction buffer, a solution having a composition of 100 mM Tris-HCl (pH 7.5), 250 mM sucrose, 150 mM MgCl2, 0.01% bovine serum albumin (BSA) was used. Using this buffer, a given concentration of the test compound and a composition (100 μl) of 25 μM dioleoylglycerol, 25 μM [^14C]-Oleoyl-CoA, 5 μg protein/ml DGAT1 high expression Sf9 microsome, and 1% acetone were subjected to a triglyceride synthesis reaction at 32° C. for 20 min. A mixture of 300 μL of chloroform:methanol (=1:2) was added to the reaction mixture to quench the reaction. The reaction mixture was sufficiently mixed and distilled water (200 μL) was added to partition the mixture between a chloroform layer (lower layer) and an aqueous layer (upper layer). The chloroform layer (50 μL) was spotted on a thin layer chromatography silica gel plate (TLC plate, Merck) and developed with a solvent (n-hexane:diethyl ether:ethyl acetate:acetic acid=255:30:15:0.6). The developed TLC plate was dried, contacted with a BAS imaging plate (manufactured by FUJIFILM) and measured with BAS2500 (manufactured by FUJIFILM) 16 hr later to numerically show the amount of [^14C]-triglyceride (TG amount) produced during the reaction. The inhibitory rate was calculated by the following formula:
Inhibitory rate (%)=(1−(TG amount with addition of test compound−blank TG amount)/(control TG amount−blank TG amount))×100 […]

Structure (SMILES) | IC50 [nM]
CC(C)c1nc2c(s1)CC(C(=O)NCCNC(=O)c1cn(-c3ccccc3)nc1C(F)(F)F)CC2 (centres unmarked) [Example E242, 2-isopropyl-N-(2-(1-phenyl-3-(trifluoromethyl)-1H-pyrazole-4-carboxamido)ethyl)-4,5,6,7-tetrahydrobenzo[d]thiazole-6-carboxamide] | 10 to 100
CC(C)c1nc([C@H]2CC[C@H](C(=O)NCCNC(=O)c3cn(-c4ccccc4Cl)nc3C(F)(F)F)CC2)no1 [Example E257, 1-(2-chlorophenyl)-N-(2-(trans-4-(5-isopropyl-1,2,4-oxadiazol-3-yl)cyclohexanecarboxamido)ethyl)-3-(trifluoromethyl)-1H-pyrazole-4-carboxamide] | 10 to 100
CC(C)c1nc([C@H]2CC[C@H](C(=O)NCCNC(=O)c3cn(-c4ccccc4F)nc3C(F)(F)F)CC2)no1 [Example E260, 1-(2-fluorophenyl)-N-(2-(trans-4-(5-isopropyl-1,2,4-oxadiazol-3-yl)cyclohexanecarboxamido)ethyl)-3-(trifluoromethyl)-1H-pyrazole-4-carboxamide] | 10 to 100
CC(C)c1nnc([C@H]2CC[C@H](C(=O)NCCNC(=O)c3cn(-c4ccccc4F)c4ccccc34)CC2)o1 [Example E265, 1-(2-fluorophenyl)-N-(2-(trans-4-(5-isopropyl-1,3,4-oxadiazol-2-yl)cyclohexanecarboxamido)ethyl)-1H-indole-3-carboxamide] | 10 to 100
CN(CCc1ccncc1)C(=O)NCCNC(=O)c1cn(-c2ccccc2)nc1C(F)(F)F [Example F1, N-(2-(3-Methyl-3-(2-(pyridin-4-yl)ethyl)ureido)ethyl)-1-phenyl-3-(trifluoromethyl)-1H-pyrazole-4-carboxamide] | 1000 to 10000
